Experimental findings from patent EP2578218A1, “Antiviral efficacy of disodium 2,6-dimethyl-1,4-dihydropyridine-3,5-bis(carbonyloxyacetate) and its derivatives” (Grindeks, A Joint Stock Company, priority 2011, dated 2013) are described below.

This test relates to influenza virus (H3N2). Nature of the test: antiviral efficacy on MDCK cell line in vitro. The conditions noted are these: MDCK cells infected with influenza virus (H3N2); test compound present from 1 hour after viral infection until end of culture; over a wide concentration range (FIG.3-5). Format: cell-based. As to the method: For influenza virus, MDCK cells that were permissive of viral replication were grown up to sufficient numbers in growth media with supplements. Once MDCK cells were confluent they were seeded into 96 well flat-bottomed plates (2x10^4 cells/well), incubated overnight and then infected with the influenza virus (H3N2) at the correct concentration and incubated in order to allow productive infection of the MDCK cells.
After the initial seeding of cells overnight (200 µl/well), the medium was removed and influenza viral infection performed in a smaller volume (25µl/well) for 1 hour. After the 1 hour infection, the viral inoculum was removed and replaced with medium (200p1/well) containing test compound. Thus, disodium 2,6-dimethyl-1,4-dihydropyridine-3,5-bis(carbonyloxyacetate) and its derivatives - disodium 2,4,6-trimethyl-1,4-dihydropyridine-3,5-bis-carbonyloxyacetate and disodium 4-ethyl-2,6-dimethyl-1,4-dihydropyridine-3,5-bis(carbonyloxyacetate) (compounds with general formula I), were presented from 1 hour after viral infection until the end of the culture period.
The antiviral efficacy of disodium 2,6-dimethyl-1,4-dihydropyridine-3,5-bis(carbonyloxyacetate) and its derivatives - disodium 2,4,6-trimethyl-1,4-dihydropyridine-3,5-bis(carbonyloxyacetate) and disodium 4-ethyl-2,6-dimethyl-1,4-dihydropyridine-3,5-bis(carbonyloxyacetate) (compounds with general formula I), were compared with already known medicaments, such as 1-methyl-2-phenylthiomethyl-3-carbethoxy-4-dimethylaminomethyl-5-oxybromoindole monohydrate hydrochloride and Oseltamivir, and results were represented in FIG.1., FIG.2., FIG.3., FIG.4. and FIG.5.
With `CC1=C(C(=O)OCC(=O)O)C(C)C(C(=O)OCC(=O)O)=C(C)N1` [disodium 2,4,6-trimethyl-1,4-dihydropyridine-3,5-bis-carbonyloxyacetate], the antiviral efficacy entry is reported as “effective against influenza”.

In the case of `CC1=C(C(=O)OCC(=O)O)CC(C(=O)OCC(=O)O)=C(C)N1` [disodium 2,6-dimethyl-1,4-dihydropyridine-3,5-bis(carbonyloxyacetate)], the antiviral efficacy result is listed as “effective against influenza”.

Turning to `CCC1C(C(=O)OCC(=O)O)=C(C)NC(C)=C1C(=O)OCC(=O)O` [disodium 4-ethyl-2,6-dimethyl-1,4-dihydropyridine-3,5-bis(carbonyloxyacetate)], the antiviral efficacy entry is listed as “effective against influenza”.
